Reference: patent US20220356174A1, “PYRIDIN-2-ONE COMPOUNDS USEFUL AS SMARCA2 ANTAGONISTS” (Epizyme, Inc., priority 2018, published 2022)
Read-outs that look alike come from different tables or passages of the source.

Legend:
[1] = biological target: T1, FL-SMARCA2 (full-length human SMARCA2 isoform 1) (Homo sapiens, UniProt P51531); assay: SMARCA2 ATPase activity assay (ADP-Glo, chicken mononucleosome substrate); type: biochemical; settings: ATPase assay, enzyme 5 nM, ATP 250 uM, chicken mononucleosome 10 nM, 30 min preincubation
T1 construct: FLAG tag (YKDDDDK) (C); made in house; host or cells: Sf21 insect cells (baculovirus, pFastBacI)
T1 sequence (P51531 with tags, fused parts or gaps): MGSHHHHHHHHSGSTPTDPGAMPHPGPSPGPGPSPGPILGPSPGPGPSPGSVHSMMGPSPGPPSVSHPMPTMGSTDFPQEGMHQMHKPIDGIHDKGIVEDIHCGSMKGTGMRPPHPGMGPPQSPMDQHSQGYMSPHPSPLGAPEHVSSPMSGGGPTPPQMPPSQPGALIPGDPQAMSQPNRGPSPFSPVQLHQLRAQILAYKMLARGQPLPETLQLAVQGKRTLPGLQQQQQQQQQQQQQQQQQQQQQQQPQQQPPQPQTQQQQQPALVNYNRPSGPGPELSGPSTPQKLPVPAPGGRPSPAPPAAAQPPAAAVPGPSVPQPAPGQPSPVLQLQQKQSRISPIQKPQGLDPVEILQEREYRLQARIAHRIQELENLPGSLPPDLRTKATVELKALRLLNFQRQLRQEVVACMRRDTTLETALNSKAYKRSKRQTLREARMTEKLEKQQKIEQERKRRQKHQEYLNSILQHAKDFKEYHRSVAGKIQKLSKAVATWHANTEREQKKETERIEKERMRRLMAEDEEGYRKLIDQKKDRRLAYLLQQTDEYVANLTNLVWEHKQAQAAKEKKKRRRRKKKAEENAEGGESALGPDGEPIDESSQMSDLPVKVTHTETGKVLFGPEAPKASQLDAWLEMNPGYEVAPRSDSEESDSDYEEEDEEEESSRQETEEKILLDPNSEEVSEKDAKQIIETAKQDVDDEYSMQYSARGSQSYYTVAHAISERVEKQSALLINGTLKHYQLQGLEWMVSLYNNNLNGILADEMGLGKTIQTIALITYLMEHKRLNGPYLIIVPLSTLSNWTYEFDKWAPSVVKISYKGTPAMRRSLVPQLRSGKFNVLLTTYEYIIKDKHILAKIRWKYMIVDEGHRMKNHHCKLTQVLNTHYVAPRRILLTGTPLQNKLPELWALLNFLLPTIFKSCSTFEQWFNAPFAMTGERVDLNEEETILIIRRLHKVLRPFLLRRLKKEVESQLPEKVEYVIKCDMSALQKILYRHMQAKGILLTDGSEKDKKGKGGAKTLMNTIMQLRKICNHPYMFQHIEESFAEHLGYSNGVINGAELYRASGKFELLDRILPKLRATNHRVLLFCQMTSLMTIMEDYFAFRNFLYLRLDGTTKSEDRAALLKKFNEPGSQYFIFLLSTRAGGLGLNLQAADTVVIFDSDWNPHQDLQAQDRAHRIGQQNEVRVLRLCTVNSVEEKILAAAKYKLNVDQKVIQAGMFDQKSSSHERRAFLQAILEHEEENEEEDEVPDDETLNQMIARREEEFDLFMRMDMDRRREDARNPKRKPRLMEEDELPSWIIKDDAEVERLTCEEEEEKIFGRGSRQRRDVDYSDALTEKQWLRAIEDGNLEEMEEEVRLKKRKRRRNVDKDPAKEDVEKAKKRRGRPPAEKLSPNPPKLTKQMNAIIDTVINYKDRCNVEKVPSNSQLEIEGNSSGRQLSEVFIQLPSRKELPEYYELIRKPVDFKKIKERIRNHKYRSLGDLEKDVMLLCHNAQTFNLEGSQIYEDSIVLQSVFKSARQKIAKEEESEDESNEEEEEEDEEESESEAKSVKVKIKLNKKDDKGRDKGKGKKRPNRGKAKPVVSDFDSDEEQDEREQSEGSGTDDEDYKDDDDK

A549 cells = assay: High-throughput proliferation (HTP) assay for A549 cells (CellTiter-Glo, 7 days); type: cell-based; settings: Homo sapiens, 168 h, read-out: A549 SMARCA2 IC50
Method in brief: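 A549 cells plated at 62.5 cells/well in F12K + 10% HI-FBS onto pre-dispensed compound, grown 7 days at 37° C., 5% CO2. Viability by CellTiter-Glo luminescence after 30 min at RT; EC50/IC50 from DMSO (0%) and 10 μM Doxorubicin (100%) inhibition controls.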

FL-SMARCA4 = FL-SMARCA4 (Homo sapiens, UniProt P51532); assay: SMARCA4 ATPase activity assay (ADP-Glo, chicken mononucleosome substrate)
Sequence of FL-SMARCA4 (P51532 whole entry): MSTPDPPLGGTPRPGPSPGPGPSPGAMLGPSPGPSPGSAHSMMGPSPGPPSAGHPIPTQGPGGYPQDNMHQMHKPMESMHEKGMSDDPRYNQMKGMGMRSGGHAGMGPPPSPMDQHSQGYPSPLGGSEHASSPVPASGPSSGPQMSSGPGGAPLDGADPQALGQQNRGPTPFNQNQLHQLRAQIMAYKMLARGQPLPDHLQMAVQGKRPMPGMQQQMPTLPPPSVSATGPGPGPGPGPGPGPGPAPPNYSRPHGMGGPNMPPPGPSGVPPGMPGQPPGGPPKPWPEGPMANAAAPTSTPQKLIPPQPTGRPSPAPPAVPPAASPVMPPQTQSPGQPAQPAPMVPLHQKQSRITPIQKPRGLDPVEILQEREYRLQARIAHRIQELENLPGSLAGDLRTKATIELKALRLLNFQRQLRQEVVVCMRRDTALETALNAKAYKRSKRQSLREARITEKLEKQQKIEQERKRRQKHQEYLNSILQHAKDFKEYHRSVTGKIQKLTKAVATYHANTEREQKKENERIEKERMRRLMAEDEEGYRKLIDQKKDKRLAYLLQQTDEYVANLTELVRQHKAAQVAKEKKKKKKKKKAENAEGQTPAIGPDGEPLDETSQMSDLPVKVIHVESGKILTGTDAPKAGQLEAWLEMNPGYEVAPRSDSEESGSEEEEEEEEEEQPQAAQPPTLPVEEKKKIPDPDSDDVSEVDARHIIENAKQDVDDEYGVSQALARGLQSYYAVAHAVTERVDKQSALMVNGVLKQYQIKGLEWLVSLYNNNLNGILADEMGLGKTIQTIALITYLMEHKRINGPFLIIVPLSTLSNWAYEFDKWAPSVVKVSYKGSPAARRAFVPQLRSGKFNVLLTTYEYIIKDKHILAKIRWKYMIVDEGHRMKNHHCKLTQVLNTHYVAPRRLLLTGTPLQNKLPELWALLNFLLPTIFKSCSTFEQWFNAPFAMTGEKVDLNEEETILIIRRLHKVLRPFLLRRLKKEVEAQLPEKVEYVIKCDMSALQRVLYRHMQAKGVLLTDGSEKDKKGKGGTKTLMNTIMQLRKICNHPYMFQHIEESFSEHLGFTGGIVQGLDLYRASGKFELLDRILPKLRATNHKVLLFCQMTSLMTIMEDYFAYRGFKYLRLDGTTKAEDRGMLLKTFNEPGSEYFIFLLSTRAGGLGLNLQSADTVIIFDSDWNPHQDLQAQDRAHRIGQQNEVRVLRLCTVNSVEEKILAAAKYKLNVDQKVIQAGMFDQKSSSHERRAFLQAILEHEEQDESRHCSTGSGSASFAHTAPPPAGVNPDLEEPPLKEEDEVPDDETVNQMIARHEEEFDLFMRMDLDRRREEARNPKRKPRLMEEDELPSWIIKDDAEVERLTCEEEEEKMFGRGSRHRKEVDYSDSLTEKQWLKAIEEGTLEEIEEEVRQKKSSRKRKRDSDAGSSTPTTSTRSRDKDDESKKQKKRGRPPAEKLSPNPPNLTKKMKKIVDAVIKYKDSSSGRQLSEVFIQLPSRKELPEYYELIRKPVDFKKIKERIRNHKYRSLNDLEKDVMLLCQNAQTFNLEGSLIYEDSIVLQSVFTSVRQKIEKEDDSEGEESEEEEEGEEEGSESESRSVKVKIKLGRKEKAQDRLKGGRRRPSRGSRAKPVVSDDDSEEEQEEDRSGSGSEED

H358 cells = assay: High-throughput proliferation (HTP) assay for H358 cells (CellTiter-Glo, 7 days); type: cell-based; settings: Homo sapiens, NCI-H358, 168 h, read-out: H358 SMARCA2 IC50
Protocol: Thawing vials: H358 cells (ATCC #CRL-5807™) were thawed from a cryovial containing approximately 1.6×10^6 cells frozen in 70% RPMI 1640 medium, 20% HI-FBS and 10% DMSO. Cells were thawed by submerging the bottom half of the vial in a 37° C. water bath and gently flicked until almost thawed. The cells were removed and transferred into a 15 mL conical tube containing 9 mL RPMI 1640 medium+10% HI-FBS and then centrifuged 200×g for 4 min before drawing off the media without disturbing the cell pellet to remove the DMSO. The cells were resuspended again in 15 mL of RPMI 1640 fresh complete media+10% HI-FBS and grown up in a T75 flask at 37° C. with 5% CO2 Incubator. Viability was measured to obtain baseline.
Preparing frozen stock vials: Cell density was counted in a stock flask. The culture was transferred to a 50 mL conical tube and spun down to remove medium, and then resuspend at 1-2×10^6 cells/mL in complete medium containing 10% DMSO and transferred to a 1 mL per vial.
Routine subculture: Sub-confluent cultures (70-80%) were split every 4 days, seeding out at 1-2×10^6 cells/75 cm^2.
Day 0: Assay ready plates were prepared by dispensing 50 nL of compound stock or DMSO in the appropriate wells of 384-well white CulturPlates using Echo550. Using the Multiflo, H358 cells at 50 μL/well were plated in RPMI 1640 complete media+10% HI-FBS+1% pen/strep at cell density determined [20,000 cells/mL (1,000 cells/well)] from growth curve. Treated cells were inclubated at 37° C., 5% CO2, relative humidity >90% for 7 days. CellTiter-Glo (CTG) ATP detection reagent was prepared according to manufacturer's specifications. Cell assay plates were removed from incubator and bring to room temperature (RT).
Using the MultiDrop liquid handler, 30 μL of CTG were added per well. Plates were placed on the multidrop dispenser shake for 5 seconds at RT. Plates were incubated for 30 minutes in the dark at RT before measuring luminescence using the Envison2104.
Data analysis: Using the DMSO control wells as the 0% inhibition (high signal) control and the 10 uM Doxorubicin control wells as the 100% inhibition (low signal) control, percent inhibition EC50s (inflection point) and IC50s were calculated for the compound dose responses.

[2] = FL-SMARCA4 IC>50, Table 3c.2, ATPase assay, enzyme 5 nM, ATP 250 uM, chicken mononucleosome 10 nM, 30 min preincubation
[3] = Table 3d.1, read-out: FL-SMARCA2 IC>50

SMILES | IC50 ([1]; Table 3c.1) | IC50 (A549 cells) | IC50 (FL-SMARCA4; [2]) | IC50 (H358 cells) | IC50 [1, 3] | IC50 (FL-SMARCA4; FL-SMARCA4 IC50)
N#Cc1cc(C(=O)Nc2cc(F)c(=O)n(CC(F)F)c2)sc1C(F)(F)Cl [Compound 78d] |  | 6370 nM |  | > 10000 nM | 57.5 nM | 377 nM
O=C(Nc1cc(F)c(=O)n(CC(F)F)c1)c1cc(C#CC2COC2)c(C(F)F)s1 [Compound 80c] | 161 nM | 3980 nM | 494 nM | > 10000 nM |  | 
Cc1cc(C(=O)Nc2cc(F)c(=O)n(CC(F)F)c2)sc1C(F)(F)F [Compound 80d] |  | > 10000 nM |  | > 10000 nM | 224 nM | 1140 nM
Cc1sc(C(=O)Nc2cc(F)c(=O)n(CC(F)F)c2)cc1C#N [Compound 81d] |  | 2370 nM |  | > 10000 nM | 67 nM | 241 nM
Cc1cc(NC(=O)c2cc(Cl)c(C(F)(F)F)s2)cn(CC(F)F)c1=O [Compound 82d] |  | 4730 nM |  | > 10000 nM | 1360 nM | 8090 nM
CC(F)(F)c1sc(C(=O)Nc2cc(F)c(=O)n(CC(F)F)c2)cc1C#N [Compound 83d] |  | > 10000 nM |  | > 10000 nM | 465 nM | 2390 nM
CC(C)(F)c1sc(C(=O)Nc2cc(F)c(=O)n(CC(F)F)c2)cc1C#N [Compound 84d] |  | > 10000 nM |  | > 10000 nM | 8580 nM | > 50000 nM
N#Cc1cc(C(=O)Nc2cc(F)c(=O)n(CC3(F)CC3)c2)sc1C(F)(F)F [Compound 85d] |  | 4170 nM |  | > 10000 nM | 104 nM | 596 nM
N#Cc1cc(NC(=O)c2cc(Cl)c(C(F)(F)F)s2)cn(CC(F)F)c1=O [Compound 86d] |  | 3950 nM |  | 8560 nM | 101 nM | 512 nM
N#Cc1cc(C(=O)Nc2cc(F)c(=O)n(CC(F)F)c2)sc1C1CC1 [Compound 87d] |  | > 10000 nM |  | > 10000 nM | 978 nM | 4990 nM
N#Cc1cc(C(=O)Nc2cc(O)c(=O)n(CC(F)F)c2)sc1C(F)(F)F [Compound 88d] |  | > 10000 nM |  | > 10000 nM | 576 nM | 3970 nM
O=C(Nc1cc(F)c(=O)n(CC(F)F)c1)c1cc(OC(F)(F)F)c(C(F)(F)F)s1 [Compound 89d] |  | 5620 nM |  | > 10000 nM | 187 nM | 2070 nM
Cc1sc(C(=O)Nc2cc(F)c(=O)n(CC(F)F)c2)cc1C#CC1COC1 [Compound 92c] | 120 nM | 2330 nM | 346 nM | > 10000 nM |  | 
O=C(Nc1cc(F)c(=O)n(CC(F)F)c1)c1cc(C#CC2OCCCO2)c(Cl)s1 [Compound 101d] |  | 3740 nM |  | > 10000 nM | 166 nM | 285 nM
N#Cc1sc(C(=O)Nc2cc(F)c(=O)n(CC(F)F)c2)cc1C#CC1CCOCC1 [Compound 102d] |  | 1050 nM |  | > 10000 nM | 19.4 nM | 46.4 nM
N#Cc1cc(C(=O)Nc2cc(OC(F)(F)F)c(=O)n(CC(F)F)c2)sc1C(F)(F)F [Compound 103d] |  | > 10000 nM |  | > 10000 nM | > 50000 nM | > 50000 nM
N#Cc1sc(C(=O)Nc2cc(F)c(=O)n(CC(F)F)c2)cc1C#C[C@H]1C[C@H](O)C1 [Compound 104d] |  | 4370 nM |  | > 10000 nM | 30 nM | 82 nM
N#Cc1sc(C(=O)Nc2cc(F)c(=O)n(CC(F)F)c2)cc1C#C[C@H]1C[C@@H](O)C1 [Compound 105d] |  | 4300 nM |  | > 10000 nM | 31.4 nM | 90.6 nM

Other lines, results leading:

IC50 ([1]; Table 3c.1) | IC50 (A549 cells) | IC50 (FL-SMARCA4; [2]) | IC50 (H358 cells) | IC50 [1, 3] | IC50 (FL-SMARCA4; FL-SMARCA4 IC50) | SMILES
98.3 nM | 1570 nM | 256 nM | > 10000 nM |  |  | O=C(Nc1cc(F)c(=O)n(CC(F)F)c1)c1cc(C#C[C@H]2CCOC2)c(Cl)s1 [Compound 78c]
56.8 nM | 1290 nM | 143 nM | > 10000 nM |  |  | O=C(Nc1cc(F)c(=O)n(CC(F)F)c1)c1cc(C#C[C@@H]2CCOC2)c(Cl)s1 [Compound 79c]
79.8 nM | 2010 nM | 198 nM | > 10000 nM |  |  | O=C(Nc1cc(F)c(=O)n(CC(F)F)c1)c1cc(C#Cc2ccccn2)c(Cl)s1 [Compound 81c]
19.4 nM | 3470 nM | 62.9 nM | > 10000 nM |  |  | O=C(Nc1cc(F)c(=O)n(CC(F)F)c1)c1cc(C#Cc2cn[nH]c2)c(Cl)s1 [Compound 83c]
81.1 nM | 2370 nM | 233 nM | > 10000 nM |  |  | CC#Cc1cc(C(=O)Nc2cc(F)c(=O)n(CC(F)F)c2)sc1Cl [Compound 85c]
17.2 nM | 1730 nM | 45.1 nM | > 10000 nM |  |  | CNC(=O)c1cccc(C#Cc2cc(C(=O)Nc3cc(F)c(=O)n(CC(F)F)c3)sc2Cl)c1 [Compound 86c]
 | > 10000 nM |  | > 10000 nM | 1390 nM | 2710 nM | O=C(Nc1cc(F)c(=O)n(CC(F)F)c1)c1cc(C#Cc2cn3c(n2)COCC3)c(Cl)s1 [Compound 90d]
 | > 10000 nM |  | > 10000 nM | 22.9 nM | 69.8 nM | O=C(Nc1cc(F)c(=O)n(CC(F)F)c1)c1cc(C#Cc2ccc3nncn3c2)c(Cl)s1 [Compound 91d]
 | 1990 nM |  | > 10000 nM | 31.3 nM | 155 nM | Cc1cc(C#Cc2cc(C(=O)Nc3cc(C#N)c(=O)n(CC(F)F)c3)sc2Cl)sn1 [Compound 92d]
 | 3930 nM |  | > 10000 nM | 43.1 nM | 147 nM | Cn1cc(C#Cc2cc(C(=O)Nc3cc(C#N)c(=O)n(CC(F)F)c3)sc2Cl)cn1 [Compound 93d]
603 nM | > 10000 nM | 5710 nM | > 10000 nM |  |  | O=C(Nc1cc(F)c(=O)n(CC(F)F)c1)c1cc(/C=C/c2cccnc2)c(Cl)s1 [Compound 95c]
 | > 10000 nM |  | > 10000 nM | 334 nM | 1060 nM | O=C(Nc1cc(F)c(=O)n(CC(F)F)c1)c1cc(C#Cc2cnc3n2CCOC3)c(Cl)s1 [Compound 95d]
 | 4440 nM |  | > 10000 nM | 38.1 nM | 97.3 nM | O=C(Nc1cc(F)c(=O)n(CC(F)F)c1)c1cc(C#Cc2ccc3cncn3c2)c(Cl)s1 [Compound 96d]
 | > 10000 nM |  | > 10000 nM | 2700 nM | 3380 nM | O=C(Nc1cc(F)c(=O)n(CC(F)F)c1)c1cc(C#Cc2ccn(-c3ccccn3)c(=O)c2)c(Cl)s1 [Compound 97d]
108 nM | 3300 nM | 287 nM | > 10000 nM |  |  | CS(=O)(=O)c1cccc(C#Cc2cc(C(=O)Nc3cc(F)c(=O)n(CC(F)F)c3)sc2Cl)c1 [Compound 98c]
40.6 nM | 1700 nM | 80.1 nM | > 10000 nM |  |  | CNS(=O)(=O)c1cccc(C#Cc2cc(C(=O)Nc3cc(F)c(=O)n(CC(F)F)c3)sc2Cl)c1 [Compound 99c]
 | 6680 nM |  | > 10000 nM | 195 nM | 244 nM | O=C(Nc1cc(F)c(=O)n(CC(F)F)c1)c1cc(C#CC2CCS(=O)(=O)CC2)c(Cl)s1 [Compound 99d]
 | 4350 nM |  | 6240 nM | 6.06 nM | 8.53 nM | N#Cc1ncc(C#Cc2cc(C(=O)Nc3cc(F)c(=O)n(CC(F)F)c3)sc2Cl)o1 [Compound 100d]
 | > 10000 nM |  | > 10000 nM | 2180 nM | 5630 nM | O=C(Nc1cc(F)c(=O)n(CC(F)F)c1)c1cc(C#CC2CCNC2)c(Cl)s1 (stereo not shown) [Compound 106d]
